Laboratory results published in US3954793A, “1-(2-Propynyl)-1 H-indazole compounds” (priority 1973, dated 1976).

System: CH strain houseflies
Assay: spray application of pyrethrum, percent knockdown as a function of time
Assay type: in vivo
Settings: pyrethrum 100 + synergist 100 mg/cc
Method: The average percent knockdown of CH strain flies, as a function of time, resulting from spray application of pyrethrum, alone and with synergists, are given in Table XXXXIII. Duplicate tests were performed using 50 CH strain houseflies per test. Test solutions of 100 mg and 200mg of pyrethrum per cc of acetone, 200 mg of synergist per cc of acetone, and a mixture of 100 mg of pyrethrum and 100 mg of synergist per cc of acetone were prepared. The fifty CH strain houseflies were put in a 40 liter spray chamber and 1 cc of the test solution was sprayed into the test chamber with a spray pistol. The synergists alone at 200 mg/cc caused no knockdown.

Structure (SMILES)	average percent knockdown, pyrethrum with synergist (5 minutes) [%]	average percent knockdown, pyrethrum with synergist (10 minutes) [%]	average percent knockdown, pyrethrum with synergist (15 minutes) [%]	average percent knockdown, pyrethrum with synergist (20 minutes) [%]	average percent knockdown, pyrethrum with synergist (25 minutes) [%]	average percent knockdown, pyrethrum with synergist (30 minutes) [%]	average percent knockdown, pyrethrum with synergist (40 minutes) [%]	average percent knockdown, pyrethrum with synergist (50 minutes) [%]	average percent knockdown, pyrethrum with synergist (60 minutes) [%]
C#CCON=C(C)c1ccc(Cl)cc1 [I-D]	6	15	26	39	52	60	86	87	88
C#CCON=Cc1ccc(Cl)cc1Cl [I-G]	7	12	31	36	59	66	89	93	94
C#CCON=Cc1cccc2ccccc12 [I-I]	4	7	19	29	40	49	57	86	92
C#CCOCc1c(Cl)ccc(Cl)c1Cl [II-E]	5	9	17	44	55	59	77	93	95
